# Literature values in US20040220135A1 (priority 2003, published 2004).
# Tested on: liver metastases
# Conditions: Gray et al (2001) Annals of Oncology 12: 1711-1720
smiles,measurement,value
O=c1[nH]c(=O)n([C@H]2C[C@H](O)[C@@H](CO)O2)cc1F [floxuridine],Response rate,17.6%
same,Time to disease progression,9.7 months
